According to publication PMC12260505, “First-in-Human Phase I/IIa Study of the First-in-Class CDK2/4/6 Inhibitor PF-06873600 Alone or with Endocrine Therapy in Patients with Breast Cancer” (Clinical Cancer Research, 2025):

What was measured:
[1] = tested on: ctDNA; assay: ctDNA molecular response (Guardant360, meanVAF change); format: in vivo, human; details: plus fulvestrant; for Median ctDNA molecular response: combined parts 2A and 2C; for Median change in ctDNA meanVAF: cycle 1 day 15 from cycle 1 day 1
Method: Plasma samples were collected at cycle 1 day 1, cycle 1 day 15, and the end of treatment (EOT). Genomic alterations in ctDNA were detected using the next-generation sequencing–based 74-gene Guardant360 platform (Guardant Health). ctDNA molecular response between the two samples was determined as described by Mack and colleagues ([9]). Briefly, after subtracting germline variants and potential clonal hematopoiesis of indeterminate potential, the mean variant allele frequency (meanVAF) of somatic variants (including single-nucleotide variants, insertions and deletions, and fusions) with a mutant molecular count above a proprietary threshold was calculated for each sample by averaging the VAFs of all variants detected among the two samples. The relative change of meanVAF of the posttreatment sample from the baseline sample was then calculated as the ctDNA molecular response. Samples lacking somatic variants with sufficient mutant molecular counts or the absence of any somatic alterations at both time points were considered ctDNA low and not evaluable for molecular response.

[2] = tested on: HR+/HER2− metastatic breast cancer; assay: Antitumor activity by RECIST version 1.1; format: in vivo, human; details: for Objective response (CR + PR; pts with HR+/HER2− breast cancer with measurable disease at baseline and prior CDK4/6i): 40 such pts
Method: Antitumor activity was assessed through radiological tumor assessments conducted at baseline, during treatment, whenever disease progression was suspected (e.g., symptomatic deterioration), and at the time of withdrawal from treatment (if not done in the previous 8 weeks). Responses were assessed using RECIST version 1.1.
DLT was the primary endpoint of the study, summarized by dose level using the per-protocol analysis set for patients in the dose escalation portion of the study. Efficacy analysis was summarized by dose cohorts for part 2 of the study. For part 1, no formal efficacy analysis was presented. For part 2, tumor response was presented in the form of patient data listings that included, but were not limited to, tumor type, starting dose, tumor response at each visit, and best overall response. In addition, progression date, death date, date of first response, last tumor assessment date, and date of last contact were listed. ORR, PFS, overall survival, TTP, and DoR were summarized and presented as data permitted. For response-based metrics (best overall response, ORR, and DoR), analyses were presented on the basis of confirmed responses. Analyses of PFS and TTP were defined as the time from the date of the first dose. Summaries of the number and percentage of patients with PFS and TTP and data listings by tumor type and dose were generated based on data availability. The 95% confidence intervals (CI) for medians and quartiles were generated based on the Brookmeyer–Crowley method, whereas CIs for the estimated probability of an event at a particular time point were generated using the Greenwood formula. DoR was summarized with the number of responders, the number and percentage of events/censorship, mean, standard deviation, and minimum, maximum, and median duration in units of months. ORR was summarized by the number of patients meeting respective criteria as a percentage. The 95% CIs were generated for PFS, TTP, and ORR based on available data.

[3] = Part 2A 25 mg twice daily IR + Fulvestrant, n = 45, response-evaluable set
[4] = Part 2C 25 mg twice daily IR + Fulvestrant, n = 22, response-evaluable set
[5] = Part 2 total (2A + 2C, + Fulvestrant), N = 67

C[C@@]1(O)CCC[C@H]1n1c(=O)c(C(F)F)cc2cnc(NC3CCN(S(C)(=O)=O)CC3)nc21 [PF-06873600]
Median ctDNA molecular response ([1]; EOT): 6%
Median ctDNA molecular response ([1]; cycle 1 day 15): −60%
Median change in ctDNA meanVAF ([1]; part 2A (28 evaluable)): −61%
Median change in ctDNA meanVAF ([1]; part 2C (14 evaluable)): −54%
Objective response (CR + PR; pts with HR+/HER2− breast cancer with measurable disease at baseline and prior CDK4/6i) ([2]; Part 2A 25 mg twice daily IR + Fulvestrant): 3 (7.5) n (%)
Objective response (pts with HR+/HER2− breast cancer with measurable disease at baseline) ([2]; Part 2A 25 mg twice daily IR + Fulvestrant, 44 such pts): 3 (6.8) n (%)
Clinical benefit response (CR, PR, or ≥24 weeks stable disease) [2, 3]: 19 (42.2) n (%)
Confirmed best overall response, CR [2, 3]: 0 n (%)
Confirmed best overall response, NE (not evaluable) [2, 3]: 1 (2.2) n (%)
Confirmed best overall response, Non-CR/non-PD [2, 3]: 0 n (%)
Confirmed best overall response, PR [2, 3]: 3 (6.7) n (%)
Confirmed best overall response, Progressive disease (PD) [2, 3]: 11 (24.4) n (%)
Confirmed best overall response, Stable disease [2, 3]: 30 (66.7) n (%)
Disease control (CR + PR + stable disease + non-CR/non-PD) [2, 3]: 33 (73.3) n (%)
Objective response (CR + PR) [2, 3]: 3 (6.7) n (%)
Objective response (pts with HR+/HER2− breast cancer with measurable disease at baseline) ([2]; Part 2C 25 mg twice daily IR + Fulvestrant, 20 such pts): 5 (25.0) n (%)
Clinical benefit response (CR, PR, or ≥24 weeks stable disease) [2, 4]: 13 (59.1) n (%)
Confirmed best overall response, CR [2, 4]: 0 n (%)
Confirmed best overall response, NE (not evaluable) [2, 4]: 1 (4.5) n (%)
Confirmed best overall response, Non-CR/non-PD [2, 4]: 1 (4.5) n (%)
Confirmed best overall response, PR [2, 4]: 5 (22.7) n (%)
Confirmed best overall response, Progressive disease (PD) [2, 4]: 2 (9.1) n (%)
Confirmed best overall response, Stable disease [2, 4]: 13 (59.1) n (%)
Disease control (CR + PR + stable disease + non-CR/non-PD) [2, 4]: 19 (86.4) n (%)
Objective response (CR + PR) [2, 4]: 5 (22.7) n (%)
Clinical benefit response (CR, PR, or ≥24 weeks stable disease) [2, 5]: 32 (47.8) n (%)
Confirmed best overall response, CR [2, 5]: 0 n (%)
Confirmed best overall response, NE (not evaluable) [2, 5]: 2 (3.0) n (%)
Confirmed best overall response, Non-CR/non-PD [2, 5]: 1 (1.5) n (%)
Confirmed best overall response, PR [2, 5]: 8 (11.9) n (%)
Confirmed best overall response, Progressive disease (PD) [2, 5]: 13 (19.4) n (%)
Confirmed best overall response, Stable disease [2, 5]: 43 (64.2) n (%)
Disease control (CR + PR + stable disease + non-CR/non-PD) [2, 5]: 52 (77.6) n (%)
Objective response (CR + PR) [2, 5]: 8 (11.9) n (%)
Objective response (CR + PR; pts with HR+/HER2− breast cancer with measurable disease at baseline and prior CDK4/6i) ([2]; Part 2 total (+ Fulvestrant)): 3 (7.5) n (%)
Objective response (pts with HR+/HER2− breast cancer with measurable disease at baseline) ([2]; Part 2 total (+ Fulvestrant), 64 such pts): 8 (12.5) n (%)
Partial responses (PR), patients ([2]; part 1 dose escalation, 78 patients (parts 1A, 1B, 1C)): 3.8%
